Assay results as given in PubChem BioAssay (NCI).
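How tested: cells in 96-well plates exposed to compound for 48 hours at five concentrations. The concentration for 50% growth inhibition is given as GI50. At the TGI there is no net growth.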

What was measured:
Test in all cases: NCI tumour cell line growth inhibition, 48 h; in the data active = GI50 below about 0.43 µM; inactive = the rest
786-0 renal = system: 786-0 renal
A498 renal = system: A498 renal
A549 NSCLC = system: A549 NSCLC
ACHN renal = system: ACHN renal
BT-549 breast = system: BT-549 breast
CAKI-1 renal = system: CAKI-1 renal
CCRF-CEM leukemia = system: CCRF-CEM leukemia
COLO 205 colon = system: COLO 205 colon
DU-145 prostate = system: DU-145 prostate
EKVX NSCLC = system: EKVX NSCLC
HCC-2998 colon = system: HCC-2998 colon
HCT-15 colon = system: HCT-15 colon
HL-60(TB) leukemia = system: HL-60(TB) leukemia
HOP-92 NSCLC = system: HOP-92 NSCLC
HS 578T breast = system: HS 578T breast
HT29 colon = system: HT29 colon
IGROV1 ovarian = system: IGROV1 ovarian
K-562 leukemia = system: K-562 leukemia
KM12 colon = system: KM12 colon
LOX IMVI melanoma = system: LOX IMVI melanoma
MALME-3M melanoma = system: MALME-3M melanoma
MCF7 breast = system: MCF7 breast
MDA-MB-231 breast = system: MDA-MB-231 breast
MDA-MB-435 = system: MDA-MB-435
MOLT-4 leukemia = system: MOLT-4 leukemia
NCI-H226 lung = system: NCI-H226 lung
NCI-H23 lung = system: NCI-H23 lung
NCI-H460 lung = system: NCI-H460 lung
NCI-H522 lung = system: NCI-H522 lung
NCI/ADR-RES ovarian = system: NCI/ADR-RES ovarian
OVCAR-3 ovarian = system: OVCAR-3 ovarian
OVCAR-4 ovarian = system: OVCAR-4 ovarian
OVCAR-5 ovarian = system: OVCAR-5 ovarian
OVCAR-8 ovarian = system: OVCAR-8 ovarian
PC-3 prostate = system: PC-3 prostate
RPMI-8226 leukemia = system: RPMI-8226 leukemia
RXF 393 renal = system: RXF 393 renal
SF-268 CNS = system: SF-268 CNS
SF-295 CNS = system: SF-295 CNS
SF-539 CNS = system: SF-539 CNS
SK-MEL-2 melanoma = system: SK-MEL-2 melanoma
SK-MEL-28 melanoma = system: SK-MEL-28 melanoma
SK-MEL-5 melanoma = system: SK-MEL-5 melanoma
SK-OV-3 ovarian = system: SK-OV-3 ovarian
SN12C renal = system: SN12C renal
SNB-19 CNS = system: SNB-19 CNS
SNB-75 CNS = system: SNB-75 CNS
SR leukemia = system: SR leukemia
SW-620 colon = system: SW-620 colon
T-47D breast = system: T-47D breast
TK-10 renal = system: TK-10 renal
U251 CNS = system: U251 CNS
UACC-257 melanoma = system: UACC-257 melanoma
UACC-62 melanoma = system: UACC-62 melanoma
UO-31 renal = system: UO-31 renal

O=C(Nc1ccccc1I(=O)=O)C1CCCCC1
inactive: GI50 (786-0 renal) > 100 µM | GI50 (A498 renal) > 100 µM | GI50 (A549 NSCLC) > 100 µM | GI50 (ACHN renal) > 100 µM | GI50 (BT-549 breast) > 100 µM | GI50 (CAKI-1 renal) > 100 µM | GI50 (CCRF-CEM leukemia) > 100 µM | GI50 (COLO 205 colon) > 100 µM | GI50 (DU-145 prostate) > 100 µM | GI50 (EKVX NSCLC) > 100 µM | GI50 (HCC-2998 colon) > 100 µM | GI50 (HCT-15 colon) > 100 µM | GI50 (HL-60(TB) leukemia) 57.6 µM | GI50 (HOP-92 NSCLC) > 100 µM | GI50 (HS 578T breast) > 100 µM | GI50 (HT29 colon) > 100 µM | GI50 (IGROV1 ovarian) > 100 µM | GI50 (K-562 leukemia) 56.8 µM | GI50 (KM12 colon) > 100 µM | GI50 (LOX IMVI melanoma) > 100 µM | GI50 (MALME-3M melanoma) > 100 µM | GI50 (MCF7 breast) > 100 µM | GI50 (MDA-MB-231 breast) > 100 µM | GI50 (MDA-MB-435) > 100 µM | GI50 (MOLT-4 leukemia) 98.5 µM | GI50 (NCI-H226 lung) > 100 µM | GI50 (NCI-H23 lung) > 100 µM | GI50 (NCI-H460 lung) > 100 µM | GI50 (NCI-H522 lung) > 100 µM | GI50 (NCI/ADR-RES ovarian) > 100 µM | GI50 (OVCAR-3 ovarian) > 100 µM | GI50 (OVCAR-4 ovarian) > 100 µM | GI50 (OVCAR-5 ovarian) > 100 µM | GI50 (OVCAR-8 ovarian) > 100 µM | GI50 (PC-3 prostate) > 100 µM | GI50 (RPMI-8226 leukemia) > 100 µM | GI50 (RXF 393 renal) > 100 µM | GI50 (SF-268 CNS) > 100 µM | GI50 (SF-295 CNS) > 100 µM | GI50 (SF-539 CNS) > 100 µM | GI50 (SK-MEL-2 melanoma) > 100 µM | GI50 (SK-MEL-28 melanoma) > 100 µM | GI50 (SK-MEL-5 melanoma) > 100 µM | GI50 (SK-OV-3 ovarian) > 100 µM | GI50 (SN12C renal) > 100 µM | GI50 (SNB-19 CNS) > 100 µM | GI50 (SNB-75 CNS) > 100 µM | GI50 (SR leukemia) > 100 µM | GI50 (SW-620 colon) > 100 µM | GI50 (T-47D breast) 58.5 µM | GI50 (TK-10 renal) > 100 µM | GI50 (U251 CNS) > 100 µM | GI50 (UACC-257 melanoma) > 100 µM | GI50 (UACC-62 melanoma) > 100 µM | GI50 (UO-31 renal) > 100 µM
> 100 µM: TGI (786-0 renal) | TGI (A498 renal) | TGI (A549 NSCLC) | TGI (ACHN renal) | TGI (BT-549 breast) | TGI (CAKI-1 renal) | TGI (CCRF-CEM leukemia) | TGI (COLO 205 colon) | TGI (DU-145 prostate) | TGI (EKVX NSCLC) | TGI (HCC-2998 colon) | TGI (HCT-15 colon) | TGI (HL-60(TB) leukemia) | TGI (HOP-92 NSCLC) | TGI (HS 578T breast) | TGI (HT29 colon) | TGI (IGROV1 ovarian) | TGI (K-562 leukemia) | TGI (KM12 colon) | TGI (LOX IMVI melanoma) | TGI (MALME-3M melanoma) | TGI (MCF7 breast) | TGI (MDA-MB-231 breast) | TGI (MDA-MB-435) | TGI (MOLT-4 leukemia) | TGI (NCI-H226 lung) | TGI (NCI-H23 lung) | TGI (NCI-H460 lung) | TGI (NCI-H522 lung) | TGI (NCI/ADR-RES ovarian) | TGI (OVCAR-3 ovarian) | TGI (OVCAR-4 ovarian) | TGI (OVCAR-5 ovarian) | TGI (OVCAR-8 ovarian) | TGI (PC-3 prostate) | TGI (RPMI-8226 leukemia) | TGI (RXF 393 renal) | TGI (SF-268 CNS) | TGI (SF-295 CNS) | TGI (SF-539 CNS) | TGI (SK-MEL-2 melanoma) | TGI (SK-MEL-28 melanoma) | TGI (SK-MEL-5 melanoma) | TGI (SK-OV-3 ovarian) | TGI (SN12C renal) | TGI (SNB-19 CNS) | TGI (SNB-75 CNS) | TGI (SR leukemia) | TGI (SW-620 colon) | TGI (T-47D breast) | TGI (TK-10 renal) | TGI (U251 CNS) | TGI (UACC-257 melanoma) | TGI (UACC-62 melanoma) | TGI (UO-31 renal)
